Laboratory results taken from ChEMBL document CHEMBL1201862, “PubChem BioAssay data set” (2004).
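All cell lines were grown in 96-well plates and treated with compound for 48 hours. Abbreviation: GI50, concentration required for 50% inhibition of growth.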 Calls of active or inactive are those of the source. Cut-off read from the data, not from the text of the source: active = GI50 up to about 1.1 µM and inactive = higher.

Columns and labels:
Experiment in all cases: NCI anticancer screen, dose series, 48 h
[1] = tested on: HOP-18
[2] = tested on: KM-20L2
[3] = tested on: DMS-273
[4] = tested on: RXF 631
[5] = tested on: M19-MEL
[6] = tested on: DLD-1
[7] = tested on: XF498
[8] = tested on: LXFL 529
[9] = tested on: DMS-114

SMILES	GI50 [1]	GI50 [2]	GI50 [3]	GI50 [4]	GI50 [5]	GI50 [6]	GI50 [7]	GI50 [8]	GI50 [9]
CC(=O)O[C@H]1C=CC23OC(=O)[C@]1(C)[C@H]2[C@H](C(=O)O)C12CC(=O)[C@@](CO)(CC[C@H]13)C2	> 100 µM (inactive)	> 100 µM (inactive)	> 100 µM (inactive)	> 100 µM (inactive)	> 100 µM (inactive)	> 100 µM (inactive)	> 100 µM (inactive)	> 100 µM (inactive)	–
COC(=O)/C=C(C)/C=C/c1c(C)c(C(C)=O)c(C)n1C	> 100 µM (inactive)	> 100 µM (inactive)	> 100 µM (inactive)	> 100 µM (inactive)	> 100 µM (inactive)	> 100 µM (inactive)	> 100 µM (inactive)	88.3 µM (inactive)	–
CSC(=S)NNC(=O)c1ccncc1	25.2 µM (inactive)	32.7 µM (inactive)	21.7 µM (inactive)	30 µM (inactive)	19.1 µM (inactive)	13.5 µM (inactive)	21.9 µM (inactive)	15.7 µM (inactive)	14.3 µM (inactive)
O=C1OC(CC(=O)c2ccc(F)cc2)C(Cl)=C1Cl (centres undefined)	17.9 µM (inactive)	–	–	–	73.3 µM (inactive)	21.6 µM (inactive)	26.7 µM (inactive)	18 µM (inactive)	40.3 µM (inactive)
O=C(CC1(O)C(=O)Nc2ccc([N+](=O)[O-])cc21)c1ccc(Br)cc1 (centres undefined)	> 100 µM (inactive)	> 100 µM (inactive)	–	–	19.5 µM (inactive)	45.3 µM (inactive)	32.3 µM (inactive)	47.1 µM (inactive)	32.1 µM (inactive)
COc1cc2c(c(OC)c1OC)-c1ccc(SC)c(=O)cc1[C@@H](NCc1ccccc1[N+](=O)[O-])CC2	–	0.00314 µM (active)	0.004 µM (active)	0.01 µM (active)	0.004 µM (active)	0.00762 µM (active)	0.0176 µM (active)	0.0128 µM (active)	0.00796 µM (active)
O=C(/C=C/c1ccc(OCCCOc2ccc(/C=C/C(=O)c3ccc(Cl)cc3)cc2)cc1)c1ccc(Cl)cc1	5.42 µM (inactive)	> 100 µM (inactive)	> 100 µM (inactive)	–	> 100 µM (inactive)	> 100 µM (inactive)	> 100 µM (inactive)	> 100 µM (inactive)	> 100 µM (inactive)
CCNc1nc2c(=O)n(C)c(=O)n(C)c2s1	> 100 µM (inactive)	> 100 µM (inactive)	–	–	> 100 µM (inactive)	> 100 µM (inactive)	> 100 µM (inactive)	> 100 µM (inactive)	–
[O-][n+]1c2cc3c(cc2[n+]([O-])c2c(O)cccc21)CN(CCN1CCOCC1)C3	> 100 µM (inactive)	35.4 µM (inactive)	53.6 µM (inactive)	> 100 µM (inactive)	14.5 µM (inactive)	–	12.5 µM (inactive)	14.1 µM (inactive)	8.41 µM (inactive)
O=C1NC2(CCCCC2)C(=O)N1CCN(CCCl)CCCl [SPIROMUSTINE]	236 µM (inactive)	> 194 µM (inactive)	71.6 µM (inactive)	–	228 µM (inactive)	164 µM (inactive)	28.8 µM (inactive)	–	88.7 µM (inactive)
O=C(/C=C1\Nc2ccccc2C(=O)N1c1ccccc1Cl)c1ccccc1	> 100 µM (inactive)	> 100 µM (inactive)	> 100 µM (inactive)	> 100 µM (inactive)	> 100 µM (inactive)	> 100 µM (inactive)	–	> 100 µM (inactive)	86.3 µM (inactive)
COc1cccc(NC(=O)C(C)(C)C)c1C=O	91 µM (inactive)	43.8 µM (inactive)	–	81.3 µM (inactive)	59.3 µM (inactive)	51.9 µM (inactive)	7.38 µM (inactive)	33.7 µM (inactive)	34.6 µM (inactive)
COC(=O)C12C3C4C1C1C2C3C41C(=O)N(C(C)C)C(C)C (centres undefined)	–	> 100 µM (inactive)	> 100 µM (inactive)	–	> 100 µM (inactive)	> 100 µM (inactive)	–	> 100 µM (inactive)	> 100 µM (inactive)
COc1cccc(NC(=O)C(=O)C2C=CCS2(=O)=O)c1 (centres undefined)	> 100 µM (inactive)	> 100 µM (inactive)	–	–	> 100 µM (inactive)	> 100 µM (inactive)	> 100 µM (inactive)	> 100 µM (inactive)	> 100 µM (inactive)
CCOC(=O)C1C=C2O[C@@H]3OC4(CCCCC4)O[C@@H]3C2C2C(=O)CCC(=O)[C@@]12C(=O)OC (some centres undefined)	> 100 µM (inactive)	> 100 µM (inactive)	> 100 µM (inactive)	> 100 µM (inactive)	> 100 µM (inactive)	> 100 µM (inactive)	> 100 µM (inactive)	> 100 µM (inactive)	> 100 µM (inactive)
NC1=NC(=O)C(CC(=O)Nc2ccc(Cl)cc2Cl)S1 (centres undefined)	–	> 100 µM (inactive)	> 100 µM (inactive)	–	> 100 µM (inactive)	> 100 µM (inactive)	> 100 µM (inactive)	> 100 µM (inactive)	–
C#CCNC(=O)NCCCCC(NC(=O)OCc1ccccc1)C(=O)OCc1ccccc1 (centres undefined)	> 100 µM (inactive)	> 100 µM (inactive)	> 71.3 µM (inactive)	> 58.5 µM (inactive)	38.7 µM (inactive)	49 µM (inactive)	18.5 µM (inactive)	40.3 µM (inactive)	27.7 µM (inactive)
COc1cc(C(O)C(=O)c2nc3ccc([N+](=O)[O-])cc3nc2O)ccc1O (centres undefined)	–	69.7 µM (inactive)	83.9 µM (inactive)	–	> 100 µM (inactive)	> 100 µM (inactive)	> 100 µM (inactive)	35.8 µM (inactive)	66.8 µM (inactive)
O=C(Nc1cc(Cl)c(Cl)cc1Cl)C(=O)C1C(=O)NC(=S)NC1=O	> 100 µM (inactive)	> 100 µM (inactive)	> 100 µM (inactive)	> 100 µM (inactive)	> 100 µM (inactive)	> 100 µM (inactive)	> 100 µM (inactive)	> 100 µM (inactive)	> 100 µM (inactive)
O=C(c1ccccc1)C(c1ccccc1)C1(O)C(=O)Nc2ccc([N+](=O)[O-])cc21 (centres undefined)	–	> 100 µM (inactive)	–	> 100 µM (inactive)	26.9 µM (inactive)	> 100 µM (inactive)	> 100 µM (inactive)	32.9 µM (inactive)	19.8 µM (inactive)
CC1CCC2(OC1)OC1CC3C4CCC5CC(O)CCC5(C)C4CC(=O)OC3(C)C1C2C (centres undefined)	> 100 µM (inactive)	> 100 µM (inactive)	> 100 µM (inactive)	–	> 100 µM (inactive)	> 100 µM (inactive)	–	> 100 µM (inactive)	> 100 µM (inactive)
Cc1ccc(C)c(NC(=O)/C(=N\NC(N)=S)C(C#N)c2ccccc2)c1 (centres undefined)	> 100 µM (inactive)	> 100 µM (inactive)	> 100 µM (inactive)	–	> 100 µM (inactive)	> 100 µM (inactive)	> 100 µM (inactive)	> 100 µM (inactive)	> 100 µM (inactive)
O=C(CC(C(=O)c1ccsc1)c1cccs1)c1cccs1 (centres undefined)	–	> 100 µM (inactive)	84.5 µM (inactive)	–	96.2 µM (inactive)	> 100 µM (inactive)	70.1 µM (inactive)	38.5 µM (inactive)	41.9 µM (inactive)
COC(OC)C(C)CC(=O)N(C)C (centres undefined)	–	> 100 µM (inactive)	> 100 µM (inactive)	–	> 100 µM (inactive)	> 100 µM (inactive)	> 100 µM (inactive)	> 100 µM (inactive)	> 100 µM (inactive)
CCOC1c2cc(OC)c(OC)cc2-c2ccc3ccccc3c2N1C (centres undefined)	42.4 µM (inactive)	15.3 µM (inactive)	6.46 µM (inactive)	22.9 µM (inactive)	11.2 µM (inactive)	25.5 µM (inactive)	14.8 µM (inactive)	5.96 µM (inactive)	9.35 µM (inactive)
